Measured values from BindingDB's records for PubMed 35315650 (Korea Research Institute of Chemical Technology, 2022).

assay: Agonist activity at STING in human wild-type THP1-Dual cells co-expressing ISRE reporter assessed as IRF-mediated immune response incubated for 24 hrs by QUANTI Luc based microplate reader method

Compared with `CCn1nc(C)cc1C(=O)/N=c1\[nH]c2cc(C(N)=O)ccc2n1CCCCn1/c(=N/C(=O)c2cc(C)nn2CC)[nH]c2cc(C(N)=O)ccc21`, `CCn1nc(C)cc1C(=O)NCCCCn1c(NC(=O)c2cc(C)nn2CC)nc2cc(C(N)=O)ccc21` is 7.4-fold higher in EC50: 1.23 µM for the first, 9.12 µM for the second.

First: CCn1nc(C)cc1C(=O)Nc1nc2cc(C(N)=O)cc(OC)c2n1CCCCNC(=O)OC(C)(C)C
Second: CCn1nc(C)cc1C(=O)Nc1nc2cc(C(N)=O)cc(OCCCNC(=O)OC(C)(C)C)c2n1C
The EC50 of the first is 2.1-fold lower: 0.804 µM for the first, 1.66 µM for the second.

Going from `CCn1nc(C)cc1C(=O)Nc1nc2cc(C(N)=O)cc(OC)c2n1C/C=C/Cn1c(NC(=O)c2cc(C)nn2CC)nc2cc(C(N)=O)cc(OCCCNC(=O)OC(C)(C)C)c21` to `CCn1nc(C)cc1C(=O)Nc1nc2cc(C(N)=O)cc(OC)c2n1C/C=C/Cn1c(NC(=O)c2cc(C)nn2CC)nc2cc(C(N)=O)cc(OCCCN)c21`, the EC50 rises from 0.000354 µM to 0.00162 µM (4.6-fold).

First: CCn1nc(C)cc1C(=O)Nc1nc2cc(C(N)=O)ccc2n1CCCCCNC(=O)OC(C)(C)C
Second: CCn1nc(C)cc1C(=O)Nc1nc2cc(C(N)=O)ccc2n1CCCCNC(=O)OC(C)(C)C
The EC50 of the first is 3.9-fold lower: 1.69 µM for the first, 6.55 µM for the second. The first is the more potent here.

Going from `CCn1nc(C)cc1C(=O)NCCCOc1cc(C(N)=O)cc2nc(NC(=O)c3cc(C)nn3CC)n(C/C=C/Cn3c(NC(=O)c4cc(C)nn4CC)nc4cc(C(N)=O)cc(OC)c43)c12` to `CCn1nc(C)cc1C(=O)NCCCOc1cc(C(N)=O)cc2nc(NC(=O)c3cc(C)nn3CC)n(C)c12`, the EC50 rises from 4e-06 µM to 6.22 µM. The first is the more potent here.

Going from `CCn1nc(C)cc1C(=O)Nc1nc2cc(C(N)=O)cc(OC)c2n1C/C=C/CNC(=O)OC(C)(C)C` to `CCn1nc(C)cc1C(=O)Nc1nc2cc(C(N)=O)ccc2n1CCCNC(=O)OC(C)(C)C`, the EC50 rises from 4.6 µM to 48.6 µM (11-fold). The first is the more potent here.

Compared with `Cn1cc(C(=O)Nc2nc3cc(C(N)=O)ccc3n2CCCCn2c(NC(=O)c3cn(C)nc3C(F)(F)F)nc3cc(C(N)=O)ccc32)c(C(F)(F)F)n1`, `CCn1nc(C)cc1C(=O)Nc1nc2cc(C(N)=O)ccc2n1CCCCNC(=O)c1ccccc1` is 1.6-fold higher in EC50: 17.6 µM for the first, 28.6 µM for the second. The first is the more potent here.

Going from `CCn1nc(C)cc1C(=O)Nc1nc2cc(C(N)=O)cc(OCCCN)c2n1C` to `CCn1nc(C)cc1C(=O)Nc1nc2cc(C(N)=O)ccc2n1CCCCNC(=O)C(C)(C)C`, the EC50 rises from 29.8 µM to 51.1 µM (1.7-fold).

`CCn1nc(C)cc1C(=O)Nc1nc2cc(C(N)=O)ccc2n1CCCCNC(=O)c1cc(C)nn1C` and `CCn1nc(C)cc1C(=O)NCCCn1c(NC(=O)c2cc(C)nn2CC)nc2cc(C(N)=O)ccc21` are within 1.5-fold of each other in EC50: 30.1 µM for the first, 39.1 µM for the second.
